Reference: ChEMBL document CHEMBL1909046, “DrugMatrix in vitro pharmacology data”

Columns and labels:
[1] = DRUGMATRIX: GABAA, Chloride Channel, TBOB radioligand binding (ligand: [3H] TBOB); assay type: cell membranes, Rattus norvegicus, Wistar, Cerebral cortex, Membrane; conditions: Not Active = under 50% inhibition at 10 µM
[2] = target: Mitogen-activated protein kinase 3 (Homo sapiens, UniProt P27361); assay: DRUGMATRIX: Protein Serine/Threonine Kinase, ERK1 enzyme inhibition (substrate: Myelin Basic Protein); parameters: species or system Escherichia coli; conditions: Not Active = under 50% inhibition at 10 µM
Mitogen-activated protein kinase 3, sequence (P27361 whole entry): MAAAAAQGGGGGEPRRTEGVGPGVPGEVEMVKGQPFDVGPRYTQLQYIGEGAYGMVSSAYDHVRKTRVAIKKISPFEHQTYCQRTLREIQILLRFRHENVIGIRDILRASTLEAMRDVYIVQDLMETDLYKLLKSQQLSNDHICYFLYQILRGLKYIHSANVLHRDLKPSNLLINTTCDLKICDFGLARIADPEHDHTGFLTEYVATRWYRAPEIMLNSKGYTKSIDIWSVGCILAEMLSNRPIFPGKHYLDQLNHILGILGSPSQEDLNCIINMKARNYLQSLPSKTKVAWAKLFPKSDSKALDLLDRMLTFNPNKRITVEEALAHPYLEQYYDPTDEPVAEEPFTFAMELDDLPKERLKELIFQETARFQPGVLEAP

[3] = DRUGMATRIX: Glutamate, AMPA radioligand binding (ligand: [3H] AMPA); assay type: cell membranes, Rattus norvegicus, Wistar, Cerebral cortex, Membrane; conditions: Not Active = under 50% inhibition at 10 µM
Glucocorticoid receptor = target: T1, Glucocorticoid receptor (Homo sapiens, UniProt P04150); conditions: hela s3; also: in other assays of this panel Not Active means under 50% inhibition at 10 µM
T1 sequence (P04150 whole entry): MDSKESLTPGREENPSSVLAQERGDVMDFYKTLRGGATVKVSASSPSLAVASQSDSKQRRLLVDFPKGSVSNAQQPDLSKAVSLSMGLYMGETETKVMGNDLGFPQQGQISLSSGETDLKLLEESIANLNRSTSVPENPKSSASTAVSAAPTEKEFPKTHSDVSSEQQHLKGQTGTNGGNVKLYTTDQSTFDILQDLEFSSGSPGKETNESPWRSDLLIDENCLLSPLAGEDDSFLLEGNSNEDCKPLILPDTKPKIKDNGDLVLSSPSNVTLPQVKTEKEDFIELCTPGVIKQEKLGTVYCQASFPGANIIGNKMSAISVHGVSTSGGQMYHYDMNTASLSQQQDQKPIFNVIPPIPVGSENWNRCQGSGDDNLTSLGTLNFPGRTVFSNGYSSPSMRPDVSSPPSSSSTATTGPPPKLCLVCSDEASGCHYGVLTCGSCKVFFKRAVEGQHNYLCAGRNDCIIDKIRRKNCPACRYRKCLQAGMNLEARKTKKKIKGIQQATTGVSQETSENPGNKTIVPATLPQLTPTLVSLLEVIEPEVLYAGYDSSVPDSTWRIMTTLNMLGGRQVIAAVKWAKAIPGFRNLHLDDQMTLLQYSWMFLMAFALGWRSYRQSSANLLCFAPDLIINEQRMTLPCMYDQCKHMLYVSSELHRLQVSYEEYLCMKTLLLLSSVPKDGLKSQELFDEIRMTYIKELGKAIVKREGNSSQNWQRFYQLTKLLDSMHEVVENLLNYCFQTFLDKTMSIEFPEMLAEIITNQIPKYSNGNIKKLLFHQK

[4] = target: Beta-3 adrenergic receptor (Homo sapiens, UniProt P13945); assay: DRUGMATRIX: Adrenergic beta3 radioligand binding (ligand: [125I] Cyanopindolol); assay type: cell membranes, HEK293, Membrane; conditions: hek293; Not Active = under 50% inhibition at 10 µM
Beta-3 adrenergic receptor, sequence (P13945 whole entry): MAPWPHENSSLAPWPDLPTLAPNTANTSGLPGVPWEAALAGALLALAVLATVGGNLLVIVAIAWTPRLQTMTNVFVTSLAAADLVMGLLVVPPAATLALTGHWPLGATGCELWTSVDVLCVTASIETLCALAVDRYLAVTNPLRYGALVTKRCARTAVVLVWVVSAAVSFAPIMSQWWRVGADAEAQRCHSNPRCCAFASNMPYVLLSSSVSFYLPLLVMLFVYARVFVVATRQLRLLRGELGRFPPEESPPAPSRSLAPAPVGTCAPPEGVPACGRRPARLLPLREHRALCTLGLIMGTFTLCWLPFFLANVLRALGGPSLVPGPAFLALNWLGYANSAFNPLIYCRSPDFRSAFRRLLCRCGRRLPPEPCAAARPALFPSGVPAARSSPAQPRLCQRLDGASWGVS

[5] = target: Tyrosine-protein kinase Lck (Homo sapiens, UniProt P06239); assay: DRUGMATRIX: Protein Tyrosine Kinase, LCK enzyme inhibition (substrate: Poly(Glu:Tyr)); assay type: cell-based, Insect cells; conditions: insect cells; Not Active = under 50% inhibition at 10 µM
Tyrosine-protein kinase Lck, sequence (P06239 whole entry): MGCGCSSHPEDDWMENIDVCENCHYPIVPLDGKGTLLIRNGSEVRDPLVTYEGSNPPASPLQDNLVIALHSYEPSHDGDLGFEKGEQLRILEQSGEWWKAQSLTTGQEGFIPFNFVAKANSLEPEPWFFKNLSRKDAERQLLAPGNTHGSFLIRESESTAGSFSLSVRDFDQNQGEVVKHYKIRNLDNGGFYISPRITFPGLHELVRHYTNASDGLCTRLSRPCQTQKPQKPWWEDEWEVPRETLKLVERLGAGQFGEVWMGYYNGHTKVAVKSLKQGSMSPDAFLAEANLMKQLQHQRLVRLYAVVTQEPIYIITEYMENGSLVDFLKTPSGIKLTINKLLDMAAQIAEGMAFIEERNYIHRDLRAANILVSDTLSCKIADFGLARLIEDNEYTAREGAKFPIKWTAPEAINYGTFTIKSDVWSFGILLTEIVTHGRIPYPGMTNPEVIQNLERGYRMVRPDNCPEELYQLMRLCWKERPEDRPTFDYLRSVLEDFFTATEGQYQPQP

Vasopressin V1a receptor = Vasopressin V1a receptor (Homo sapiens, UniProt P37288); assay type: cell membranes, Membrane; conditions: hek293; also: in other assays of this panel Not Active means under 50% inhibition at 10 µM
Vasopressin V1a receptor, sequence (P37288 whole entry): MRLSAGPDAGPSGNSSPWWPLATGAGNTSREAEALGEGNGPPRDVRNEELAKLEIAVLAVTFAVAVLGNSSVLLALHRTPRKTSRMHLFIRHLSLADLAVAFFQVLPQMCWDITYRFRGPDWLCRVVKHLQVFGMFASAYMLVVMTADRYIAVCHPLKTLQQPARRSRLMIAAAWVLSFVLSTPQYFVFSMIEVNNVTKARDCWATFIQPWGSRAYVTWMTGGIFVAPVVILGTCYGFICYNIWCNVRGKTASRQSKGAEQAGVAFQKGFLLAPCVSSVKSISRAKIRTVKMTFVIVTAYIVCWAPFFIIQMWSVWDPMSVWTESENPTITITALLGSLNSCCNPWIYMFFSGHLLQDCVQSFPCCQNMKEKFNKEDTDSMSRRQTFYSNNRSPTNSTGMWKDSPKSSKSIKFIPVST

[6] = target: T2, Neuropeptide Y receptor type 2 (Homo sapiens, UniProt P49146); assay type: cell membranes, Membrane; conditions: kan-ts; also: in other assays of this panel Not Active means under 50% inhibition at 10 µM
T2 sequence (P49146 whole entry): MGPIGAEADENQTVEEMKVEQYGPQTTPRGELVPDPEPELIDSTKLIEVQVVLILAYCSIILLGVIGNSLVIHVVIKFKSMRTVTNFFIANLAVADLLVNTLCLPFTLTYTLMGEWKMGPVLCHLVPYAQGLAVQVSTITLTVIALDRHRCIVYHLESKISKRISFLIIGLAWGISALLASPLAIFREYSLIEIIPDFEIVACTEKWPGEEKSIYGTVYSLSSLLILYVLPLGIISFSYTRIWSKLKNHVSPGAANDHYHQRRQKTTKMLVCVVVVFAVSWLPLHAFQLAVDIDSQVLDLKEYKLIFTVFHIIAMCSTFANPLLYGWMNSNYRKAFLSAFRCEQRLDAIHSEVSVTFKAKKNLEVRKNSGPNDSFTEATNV

[7] = target: Receptor tyrosine-protein kinase erbB-2 (Homo sapiens, UniProt P04626); assay: biochemical; assay type: cell-based, Insect cells; conditions: insect cells;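 also: inhibition of HER2 kinase enzyme activity, measured with Poly(Glu:Tyr) as the phosphorylation substrate; in other assays of this panel Not Active means under 50% inhibition at 10 µM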
Receptor tyrosine-protein kinase erbB-2, sequence (P04626 whole entry): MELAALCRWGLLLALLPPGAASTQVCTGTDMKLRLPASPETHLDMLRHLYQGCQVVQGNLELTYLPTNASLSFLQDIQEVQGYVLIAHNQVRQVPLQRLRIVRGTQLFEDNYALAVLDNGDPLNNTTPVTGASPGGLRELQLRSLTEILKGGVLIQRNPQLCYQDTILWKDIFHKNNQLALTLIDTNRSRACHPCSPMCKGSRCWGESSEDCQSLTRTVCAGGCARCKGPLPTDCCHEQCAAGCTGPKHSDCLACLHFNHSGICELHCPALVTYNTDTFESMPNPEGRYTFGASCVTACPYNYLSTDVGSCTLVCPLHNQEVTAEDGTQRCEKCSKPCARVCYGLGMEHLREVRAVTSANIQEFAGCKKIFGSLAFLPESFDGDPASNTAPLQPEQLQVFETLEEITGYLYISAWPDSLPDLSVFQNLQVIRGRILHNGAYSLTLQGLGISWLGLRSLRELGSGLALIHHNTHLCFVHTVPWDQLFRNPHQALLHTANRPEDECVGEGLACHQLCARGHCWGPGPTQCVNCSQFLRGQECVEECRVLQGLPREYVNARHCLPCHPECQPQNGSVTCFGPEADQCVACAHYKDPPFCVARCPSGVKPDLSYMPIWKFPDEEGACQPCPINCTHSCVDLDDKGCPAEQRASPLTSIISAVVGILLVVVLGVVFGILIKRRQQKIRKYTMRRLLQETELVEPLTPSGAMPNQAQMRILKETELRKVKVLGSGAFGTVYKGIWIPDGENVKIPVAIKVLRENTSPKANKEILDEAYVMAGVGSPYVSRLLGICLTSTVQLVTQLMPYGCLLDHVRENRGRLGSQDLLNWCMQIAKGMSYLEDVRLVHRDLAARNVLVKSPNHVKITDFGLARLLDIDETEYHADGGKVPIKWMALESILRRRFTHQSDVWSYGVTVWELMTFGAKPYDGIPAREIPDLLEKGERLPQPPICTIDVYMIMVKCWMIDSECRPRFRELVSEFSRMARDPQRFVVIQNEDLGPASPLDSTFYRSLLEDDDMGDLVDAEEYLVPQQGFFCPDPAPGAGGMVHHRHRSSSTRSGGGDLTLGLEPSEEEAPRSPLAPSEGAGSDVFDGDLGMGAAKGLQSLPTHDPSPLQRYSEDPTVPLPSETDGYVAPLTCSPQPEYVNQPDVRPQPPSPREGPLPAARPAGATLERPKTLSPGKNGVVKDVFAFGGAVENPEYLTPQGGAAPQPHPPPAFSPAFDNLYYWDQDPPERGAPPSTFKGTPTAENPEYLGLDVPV

[8] = target: T3, Alpha-1B adrenergic receptor (Rattus norvegicus, UniProt P15823); assay: DRUGMATRIX: Alpha-1B adrenergic receptor radioligand binding (ligand: prazosin); assay type: cell membranes, Wistar, Liver, Membrane; conditions: Not Active = under 50% inhibition at 10 µM
T3 sequence (P15823 whole entry): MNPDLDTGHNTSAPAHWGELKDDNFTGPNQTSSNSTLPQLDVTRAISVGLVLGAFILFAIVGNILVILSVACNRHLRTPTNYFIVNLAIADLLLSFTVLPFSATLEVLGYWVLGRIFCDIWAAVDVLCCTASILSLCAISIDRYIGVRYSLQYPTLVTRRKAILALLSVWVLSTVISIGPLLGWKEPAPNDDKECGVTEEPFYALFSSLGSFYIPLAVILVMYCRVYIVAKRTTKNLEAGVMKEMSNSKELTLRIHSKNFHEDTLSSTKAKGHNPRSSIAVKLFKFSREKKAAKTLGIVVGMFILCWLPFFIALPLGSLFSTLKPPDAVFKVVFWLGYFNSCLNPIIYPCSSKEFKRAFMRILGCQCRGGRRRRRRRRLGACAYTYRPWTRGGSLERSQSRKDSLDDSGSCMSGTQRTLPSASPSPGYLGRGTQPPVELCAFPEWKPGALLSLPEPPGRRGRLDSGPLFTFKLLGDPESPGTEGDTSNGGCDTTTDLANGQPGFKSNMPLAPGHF

[9] = target: 5-hydroxytryptamine receptor 2B (Homo sapiens, UniProt P41595); assay type: cell membranes, CHO-K1, Membrane; also: in other assays of this panel Not Active means under 50% inhibition at 10 µM
5-hydroxytryptamine receptor 2B, sequence (P41595 whole entry): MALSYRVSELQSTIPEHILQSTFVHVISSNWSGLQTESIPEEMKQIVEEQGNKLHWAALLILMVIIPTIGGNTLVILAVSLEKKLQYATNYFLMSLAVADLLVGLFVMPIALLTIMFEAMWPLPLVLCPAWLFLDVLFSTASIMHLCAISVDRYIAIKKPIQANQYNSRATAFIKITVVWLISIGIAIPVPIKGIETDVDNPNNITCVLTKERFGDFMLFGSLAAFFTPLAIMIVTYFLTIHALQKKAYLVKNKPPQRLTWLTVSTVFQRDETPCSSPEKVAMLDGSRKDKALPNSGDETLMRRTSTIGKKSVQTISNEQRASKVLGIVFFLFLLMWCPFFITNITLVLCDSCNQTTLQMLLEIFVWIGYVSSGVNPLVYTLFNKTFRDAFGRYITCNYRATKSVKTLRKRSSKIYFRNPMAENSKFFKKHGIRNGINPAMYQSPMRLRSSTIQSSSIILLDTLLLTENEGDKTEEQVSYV

[10] = target: T4, Alpha-1D adrenergic receptor (Homo sapiens, UniProt P25100); assay type: cell membranes, HEK293, Membrane; also: in other assays of this panel Not Active means under 50% inhibition at 10 µM
T4 sequence (P25100 whole entry): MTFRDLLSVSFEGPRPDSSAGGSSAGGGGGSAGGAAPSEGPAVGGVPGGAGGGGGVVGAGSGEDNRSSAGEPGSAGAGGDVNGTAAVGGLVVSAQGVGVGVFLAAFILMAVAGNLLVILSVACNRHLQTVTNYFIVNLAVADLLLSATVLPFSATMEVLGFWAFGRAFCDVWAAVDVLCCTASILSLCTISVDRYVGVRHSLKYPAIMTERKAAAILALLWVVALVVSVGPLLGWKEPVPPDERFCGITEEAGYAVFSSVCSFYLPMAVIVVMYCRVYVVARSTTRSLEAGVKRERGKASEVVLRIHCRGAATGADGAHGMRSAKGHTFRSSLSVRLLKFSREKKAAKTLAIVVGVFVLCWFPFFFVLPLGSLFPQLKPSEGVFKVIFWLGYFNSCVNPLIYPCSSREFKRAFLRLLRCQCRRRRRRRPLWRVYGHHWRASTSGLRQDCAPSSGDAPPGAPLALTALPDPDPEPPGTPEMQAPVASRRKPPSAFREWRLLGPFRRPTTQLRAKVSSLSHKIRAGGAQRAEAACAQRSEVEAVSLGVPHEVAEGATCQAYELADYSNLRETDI

Structure (SMILES)	IC50 [1]	Ki [1]	IC50 [2]	IC50 [3]	Ki [3]	IC50 (Glucocorticoid receptor)	IC50 [4]	IC50 [5]	IC50 (Vasopressin V1a receptor)	IC50 [6]	IC50 [7]	IC50 [8]	IC50 ([9]; cho-k1)	IC50 ([10]; hek293)	IC50 ([8]; read-out: IC50)	Ki ([8]; read-out: Ki)	IC50 ([9]; read-out: IC50)	Ki ([9]; read-out: Ki)	IC50 ([10]; read-out: IC50)	Ki ([10]; read-out: Ki)
CC1(C)S[C@@H]2[C@H](NC(=O)[C@H](NC(=O)N3CCNC3=O)c3ccccc3)C(=O)N2[C@H]1C(=O)O [AZLOCILLIN]	Not Active	Not Active	Not Active	Not Active	Not Active	Not Active	Not Active	Not Active	Not Active	Not Active	Not Active	Not Active	Not Active	Not Active						
NCC[C@H](O)C(=O)N[C@@H]1C[C@H](N)[C@@H](O[C@H]2O[C@H](CN)[C@@H](O)[C@H](O)[C@H]2O)[C@H](O)[C@H]1O[C@H]1O[C@H](CO)[C@@H](O)[C@H](N)[C@H]1O [AMIKACIN]	Not Active	Not Active	Not Active	Not Active	Not Active	Not Active	Not Active	Not Active	Not Active	Not Active	Not Active	Not Active	Not Active	Not Active						
C/C=C1\[C@H]2C=C(C)C[C@]1(N)c1ccc(=O)[nH]c1C2 [HUPERZINE A]	Not Active	Not Active	Not Active	Not Active	Not Active	Not Active	Not Active	Not Active	Not Active	Not Active	Not Active	Not Active	Not Active	Not Active						
CCC1(c2ccccc2)C(=O)NCNC1=O [PRIMIDONE]	Not Active	Not Active	Not Active	Not Active	Not Active	Not Active	Not Active	Not Active	Not Active	Not Active	Not Active	Not Active	Not Active	Not Active						
CNCCC=C1c2ccccc2CCc2ccccc21 [NORTRIPTYLINE]	Not Active	Not Active	Not Active	Not Active	Not Active	Not Active	Not Active	Not Active	Not Active	Not Active	Not Active				207 nM	114 nM	136 nM	86 nM	273 nM	134 nM
CCOC(=O)c1ccc(N)cc1 [BENZOCAINE]	Not Active	Not Active	Not Active	Not Active	Not Active	Not Active	Not Active	Not Active	Not Active	Not Active	Not Active	Not Active	Not Active	Not Active						
Fc1ccc([C@@H]2CCNC[C@H]2COc2ccc3c(c2)OCO3)cc1 [PAROXETINE]	Not Active	Not Active	Not Active	Not Active	Not Active	Not Active	Not Active	Not Active	Not Active	Not Active	Not Active	Not Active	Not Active	Not Active						
CC=CC(=O)N(CC)c1ccccc1C	Not Active	Not Active	Not Active	Not Active	Not Active	Not Active	Not Active	Not Active	Not Active	Not Active	Not Active	Not Active	Not Active	Not Active						
Cn1cnc([N+](=O)[O-])c1Sc1ncnc2nc[nH]c12 [AZATHIOPRINE]	Not Active	Not Active	Not Active	Not Active	Not Active	Not Active	Not Active	Not Active	Not Active	Not Active	Not Active	Not Active	Not Active	Not Active						
COC1=CC(=O)C[C@@H](C)[C@]12Oc1c(Cl)c(OC)cc(OC)c1C2=O [GRISEOFULVIN]	Not Active	Not Active	Not Active	Not Active	Not Active	Not Active	Not Active	Not Active	Not Active	Not Active	Not Active	Not Active	Not Active	Not Active						
